Results reported in patent publication US8257949B2, “Self-priming polysialyltransferase” (National Research Council of Canada, priority 2006, dated 2012).

What was measured:
Assay type in all cases: biochemical
[1] = target: E. coli polysialyltransferase PST-05 (MalE-PST fusion) (Escherichia coli, UniProt Q57269); test: Sialyltransferase activity by capillary electrophoresis, apparent Km estimation; details: CE based assay, 37° C., 50 mM NaHEPES pH 7.5, 10 mM MgCl2, estimated, read-out: apparent Km for GD3-FCHASE
Experimental: (§1) For production of PST proteins, Cells grown in the presence of IPTG were lysed with an Avestin C5 Emulsiflex cell disrupter (Avestin Ottawa, Ontario) and centrifuged at 1000×g to pellet unbroken cells. MalE-PST fusions were purified using amylose resin as described by the manufacturer (New England Biolabs, Mississauga ON).
(§2) Measurement of sialyltransferase activity—Basic assays were performed at 37° C. in 10-40 μL volumes containing 50 mM NaHEPES pH 7.5, 10 mM MgCl2, 0.1-50 mM CMP-NeuAc, 0.01-5 mM labelled acceptor and various amounts of enzyme. Buffer optimization assays were done with the following buffers: 20 mM citrate-phosphate pH 6.0-8.0, 50 mM Na2PO4 pH 6.5-7.5, 50 mM NaHEPES pH 6.5-8.0, 50 mM TrisHCl pH 7.5-9.0. Metal optimization assays were performed with 10 mM CaCl2, CoCl2, MgCl2, MnCl2, NiCl2, or ZnSO4. For the magnesium titration, endogenous Mg^2+ was removed by addition of EDTA and then dialyzed against 20 mM TrisHCl pH 7.5. Reactions were stopped man equal volume of 50% acetonitrile, 1% sodium dodecylsulphate, 10 mM EDTA. Analysis of actions was done by capillary electrophoresis as previously described. See, e.g., Wakarchuk, W. W. and Cunningham, A. M., Methods Mol. Biol., 213:263-274 (2003)).
(§3) Acceptor synthesis—The GM3/GD3/GT3-FCHASE acceptors were synthesized from Lac-FCHASE on a milligram scale. […]

[2] = target: T1, N. meningitidis polysialyltransferase PST-13 (MalE-PST fusion) (Neisseria meningitidis, UniProt Q51281); test: as above; details: CE based assay, 37° C., 50 mM NaHEPES pH 7.5, 10 mM MgCl2, estimated, read-out: apparent Km for GD3-FCHASE
Experimental: as §1, §2, §3

[3] = target: T1, N. meningitidis polysialyltransferase PST-13 (MalE-PST fusion); test: Acceptor inhibition in kinetic assays; details: GD3-FCHASE at concentrations over 2 mM
Experimental: as §2
Some degradation of the starting material was observed and was more significant at high acceptor concentrations (5 mM).

NeuAc-α2,8-NeuAc-α2,3-Gal-β1,4-Glc-β-FCHASE [GD3-FCHASE]
Km [1]: 145 µM
Km [2]: 120 µM
acceptor inhibition (productivity of the enzyme) [3]: decreased significantly
